These results are taken from ChEMBL document CHEMBL4725491, “Staurosporine Analogs Via C-H Borylation” (ACS Med Chem Lett, 2020).

One assay concerns MDA-MB-231. The assay is described as follows: Cytotoxicity against human MDA-MB-231 cells assessed as reduction in cell metabolic activity after 72 hrs by MTS assay. Particulars: MDA-MB-231, 72 h. It is filed as functional, cell-based. For orientation: Tetrazolium assays rely on reduction of a dye to a coloured formazan, in cell work by metabolically active cells.
Assay [1] is described as follows: Cytotoxicity against human HMLE cells assessed as reduction in cell metabolic activity after 72 hrs by MTS assay. Type of assay: ADME, cell-based.

The IC50 is the concentration that inhibits the measured activity by half. As for `CN[C@@H]1C[C@H]2O[C@@](C)([C@@H]1OC)n1c3cc(O)ccc3c3c4c(c5c6ccccc6n2c5c31)C(=O)NC4`, the IC50 amounted to 3.4 nM in the assay with MDA-MB-231 and 58.7 nM in assay [1].

Take `CN[C@@H]1C[C@H]2O[C@@](C)([C@@H]1OC)n1c3ccc(O)cc3c3c4c(c5c6ccccc6n2c5c31)C(=O)NC4`: the IC50 worked out at 2 nM in the assay with MDA-MB-231 and 27.5 nM in assay [1]. Consider `CN[C@@H]1C[C@H]2O[C@@](C)([C@@H]1OC)n1c3ccccc3c3c4c(c5c6ccccc6n2c5c31)C(=O)NC4` [STAUROSPORINE], for which, in the assay with MDA-MB-231, the concentration for half-maximal inhibition (IC50) came out at 2.5 nM.
